Measurements: PMC3384541 (Cancer discovery, 2012)

Key:
HCC1954 tumors = assay: Xenograft tumor growth; type: in vivo, mice; settings: PTEN wild-type
[1] = system: HMEC-CA-p110α, HMEC-CA-p110β, HMEC-CA-p110δ; type: cell-based, human; settings: isogenic HMEC-CA-p110 lines, serum-free, western blot
[2] = system: HCC70, MDA-MB-468, BT549 and PC3 cell lines; assay: Western blot of AKT phosphorylation in PTEN-null cancer cell lines; type: cell-based, human
Rat1-CA-p110α tumors [3] = assay: In vivo pharmacodynamics, pAKT in tumor lysates; set-up: species or system mice; settings: after single IP injection 10 mg/kg
panel of 433 kinases = assay: KinomeScan kinase selectivity profile; type: binding; settings: 10 µM
HMEC-CA-p110β = assay: BacMam-enabled LanthaScreen cellular assay; type: cell-based; settings: Homo sapiens, read-out: IC50 in cell culture
[4] = system: panel of 422 cancer cell lines; assay: High-throughput cell viability assay; type: cell-based, human; settings: threshold EC50 < 5 µM, 72 h treatment
Rat1-CA-p110β tumors [5] = assay: In vivo pharmacodynamics, pAKT in tumor lysates; set-up: species or system mice; settings: 1 hour after single IP injection 10 mg/kg
In vivo pharmacokinetics = assay: In vivo pharmacokinetics; set-up: species or system mice
PC3 tumors = assay: Xenograft tumor growth; type: in vivo, mice; settings: PTEN-deficient; IP, 20 mg/kg, BID
HCC70 tumors = assay: Xenograft tumor growth; type: in vivo, mice; settings: PTEN-deficient; IP, 20 mg/kg, BID
Rat1-CA-p110α tumors [6] = assay: Xenograft tumor growth; type: in vivo, mice; settings: IP 20 mg/kg once or twice daily
Rat1-CA-p110β tumors [7] = assay: Xenograft tumor growth; type: in vivo, mice; settings: IP 20 mg/kg once or twice daily
[8] = single IP injection 10 mg/kg, tumor-bearing mice

With `CS(=O)(=O)N1CCN(Cc2cc3nc(-c4cccc5[nH]ncc45)nc(N4CCOCC4)c3s2)CC1` [GDC-0941, reference compound] the tumor growth (HCC1954 tumors; PO, 150 mg/kg, QD) was “responded to treatment”.
With `Cc1ccccc1-n1c(Cn2cnc3c(N)ncnc32)nc2cccc(C)c2c1=O` [IC87114] the “inhibition of phosphorylation of AKT at Thr308 and Ser473” value (“inhibition of phosphorylation of AKT” for short) [1] was “in a dose-dependent manner” and the “effect on AKT phosphorylation” value [2] was “had much less effect”.
In the case of `Cc1cc([C@@H](C)Nc2ccccc2C(=O)O)c2nc(N3CCOCC3)cc(=O)n2c1` [KIN-193, (−)2-[1-(7-Me-2-(morpholin-4-yl)-4-oxo-4H-pyrido[1,2-a]pyrimidin-9-yl)ethylamino]benzoic acid], the “phosphorylation of AKT in tumor lysates” value (Rat1-CA-p110α tumors [3]) is reported as “remained unchanged”, the “effect on AKT phosphorylation” value [2] is reported as “significantly inhibited AKT phosphorylation” and the inhibitor-kinase interaction profile (panel of 433 kinases) is reported as “highly selective in its interaction with PI3Ks”. For the same molecule, the IC50 (HMEC-CA-p110β) was 100 to 500 nM, the tumor growth (HCC1954 tumors; IP, 20 mg/kg, BID) was “failed to block the growth” and the “cell lines with PTEN mutations sensitive to compound” value ([4]; 20 out of 57 lines) was 35%. For the same molecule, the “cell lines with wild-type PTEN sensitive to compound” value ([4]; 58 out of 365 lines) was 16%, the “phosphorylation of AKT in tumor lysates” value (Rat1-CA-p110β tumors [5]) was “significantly reduced” and the IC50 (In vivo pharmacokinetics; Mus musculus, read-out: IC50 / level reached in vivo) was ≤ 1000 nM. The “optimal route for robust in vivo exposure” value (In vivo pharmacokinetics; mice) was “intraperitoneal (IP) delivery to be the optimal route”, the “concentrations in CA-p110α- and CA-p110β-driven tumors” value (In vivo pharmacokinetics; single IP injection 10 mg/kg) was “paralleled the plasma concentrations” and the “time by which plasma concentration declined to undetectable levels” value (In vivo pharmacokinetics; [8]) was ≤ 4 h. For the same molecule, the “time of highest plasma concentration” value (In vivo pharmacokinetics; [8]) was 1 h, the tumor growth (PC3 tumors) was “significantly inhibited tumor growth” and the tumor growth (HCC70 tumors) was “significantly inhibited tumor growth”. The tumor growth (Rat1-CA-p110α tumors [6]) was “little effect” and the tumor growth (Rat1-CA-p110β tumors [7]) was “significantly impaired”.
In the case of `Cc1ccc([N+](=O)[O-])cc1S(=O)(=O)N(C)/N=C/c1cnc2ccc(Br)cn12` [PIK-75], the “inhibition of phosphorylation of AKT” value [1] is reported as “in a dose-dependent manner” and the “effect on AKT phosphorylation” value [2] is reported as “had much less effect”.
With `Cc1cc(C(C)Nc2ccccc2)c2nc(N3CCOCC3)cc(=O)n2c1` (centres unmarked) [TGX-221] the “inhibition of phosphorylation of AKT” value [1] was “in a dose-dependent manner”.
